Assay results taken from patent US12514843B2, “Biofilm disruption” (QBIOTICS PTY LTD, priority 2019, dated 2026).
Converted amounts (≈) assume the structure as drawn.

Tests used:
[1] = tested on: chronic biofilm infection; assay: Diabetic murine model of chronic biofilm infection (excisional wound); format: in vivo, db/db diabetic mice; details: 0.3 mg/mL in hydrogel, topical at 24 h, 8 and 15 days; assessed day 21 to 28 post wounding; 7 mice
Text: The effects of administration of Compound 4 on biofilm infection in vivo was studied in a diabetic murine model of chronic biofilm infection (Zhao et al. 2010). In this study we used methods described by Dhall et al. (2014) in which bacterial biofilm infections develop spontaneously following wound creation.
Briefly, db/db diabetic mice (>6 months old) were housed for 4-5 weeks in non-sterile conditions prior to the creation of wound on the back of each mouse with a 6 mm diameter excisional punch biopsy. Mice were then administered a catalase inhibitor intra-peritoneally (1 g/kg aminotriazole) and a glutathione peroxidase (GPx) inhibitor topically around the edge of the wound site (1 g/kg mercaptosuccinic acid) prior to dressing with Tegaderm. After 24 h, biofilms were evident at the wound site on all mice. The mice where divided into two groups (7 mice per group) and treated with either Compound 4 (0.3 mg/mL in a hydrogel vehicle) or a Control treatment (hydrogel vehicle only). The Tegaderm dressing was the then replaced. Two further administrations of Compound 4 or the Control (vehicle only) were performed at 8 and 15 days. No antibiotics or other antibacterial treatments were applied during the study.
The presence of biofilm and the surface area of the wound were assessed over the course of the study. […]

[2] = tested on: A. baumannii 7789 biofilm; assay: Disruption of established in vitro biofilm, CLSM with COMSTAT image analysis; format: cell-based, Acinetobacter baumannii; details: 256 μg/mL
Method: (§1) Biofilms of E. coli IR57 were grown on 96-well glass-bottomed plates in Mueller-Hinton (MH) broth for 24 h, before 50% of the supernatant was replaced with fresh MH broth with or without the epoxytiglienone compound added to a final concentration of 256 μg/mL (vehicle is ethanol). An ethanol equivalent blank was used as a further control treatment. The plates were then incubated for a further 24 h at 37° C.
(§2) Confocal laser scanning microscopy (CLSM) was then used to image the biofilms, following staining with Live/Dead® Baclight stain with phosphate buffered saline (PBS) added to each well before imaging with z-stack CLSM. The resultant images were analysed by COMSTAT software to produce measurements of (i) biofilm biomass volume or bio-volume (μm^3/μm^2) and (ii) DEAD/LIVE bacterial ratio.
The effects of the epoxytiglienones (Compounds 1, 4, 6 and the comparator compound CC-1) on disruption of established in vitro biofilms were further investigated with two other species of Gram-negative bacteria (Pseudomonas aeruginosa PA01 and Acinetobacter baumannii 7789) using methods described in Example 2 above. Cell permeabilisation following Compound 1, 4 and 6 treatment was also determined using SYTOX™ Green Nucleic Acid Stain with untreated control and positive control of 70% isopropanol.

[3] = tested on: isolated human neutrophils; assay: LL-37 release from neutrophils, ELISA; format: cell-based; details: 3 hours after treatment, 62.5, 125, 250 and 500 μM
Method: For these assays, neutrophils were isolated from fresh blood of a healthy human donor by lysis of a red blood cell pellet that had been obtained by Ficoll-Paque sedimentation. The neutrophils (˜4×10^6 cells/mL) were incubated with 10 μg/mL dihydroethidium (DHE) (Sigma-Aldrich) in complete culture medium at 37° C. for 15 min alongside an aliquot of unstained cells to be tested as unstained control.
To examine antimicrobial peptide release by neutrophils in response to treatment with Compound 4, isolated neutrophils were incubated with either vehicle or Compound 4 at the four concentrations (62.5, 125, 250 and 500 μM). At 3 h, cell culture supernatants were removed and tested for LL-37 content using a LL-37-directed ELISA kit (Hycult Biotech). ELISA readings were normalised to vehicle only controls to determine fold increases in LL-37 release.

E. coli IR57 biofilm = assay: Disruption of established in vitro biofilm, CLSM with COMSTAT image analysis; format: cell-based, Escherichia coli; details: E. coli IR57 24 h biofilm, 256 μg/mL, further 24 h; vs untreated and ethanol blank controls
Method: The effects of administration of Compounds 1, 4 and 6 and comparator compound CC-1 on disruption of established in vitro biofilms of Escherichia coli (E. coli) was investigated using methods described in Powell et al. (2018).
as §1, §2

[4] = tested on: Acinetobacter baumannii 7789 (V19); assay: Minimum inhibitory concentration (MIC) assay, planktonic culture, broth dilution; format: cell-based; set-up: key: C = confluent growth, i.e. no MIC could be determined at any concentration tested; details: A. baumannii, planktonic culture in Mueller-Hinton broth; mean of three replicate tests
Method: (§3) The effects of five epoxytiglienones (Compounds 1, 2, 3, 4 and 6) and two comparator comparator compounds (epoxytiglienones having longer carbon chains at the C12 position) on six human pathogenic bacteria (two Gram-positive and four Gram-negative species) were measured in conventional planktonic culture systems. A minimum inhibitory concentrations (MIC) assay (the standard assay employed to define and quantify antibiotic activity) was performed to determine antibacterial activity for each epoxytiglienone against each bacterial strain.
(§4) The Gram-positive bacteria used in this study were methicillin resistant Staphylococcus aureus (MRSA) 1004A and Streptococcus pyogenes. The Gram-negative bacteria used in this study were Pseudomonas aeruginosa PAO1, Escherichia coli IR57 (V7), Klebsiella pneumoniae, and Acinetobacter baumannii 7789 (V19). MIC assays were performed on planktonic cultures of each bacteria grown in Mueller-Hinton broth using the standard broth dilution method described by Jorgensen et al. (1999) using epoxytiglienones dissolved in ethanol.

Klebsiella pneumoniae = assay: as above; format: cell-based; set-up: key: C = confluent growth, i.e. no MIC could be determined at any concentration tested; details: K. pneumoniae, planktonic culture in Mueller-Hinton broth; mean of three replicate tests
Method: as §3, §4

[5] = tested on: methicillin resistant Staphylococcus aureus (MRSA) 1004A; assay: as above; format: cell-based; set-up: key: C = confluent growth, i.e. no MIC could be determined at any concentration tested; details: S. aureus, planktonic culture in Mueller-Hinton broth; mean of three replicate tests
Method: as §3, §4

Streptococcus pyogenes = assay: as above; format: cell-based; set-up: key: C = confluent growth, i.e. no MIC could be determined at any concentration tested; details: S. pyogenes, planktonic culture in Mueller-Hinton broth; mean of three replicate tests
Method: as §3, §4

[6] = tested on: Pseudomonas aeruginosa PAO1; assay: as above; format: cell-based; set-up: key: C = confluent growth, i.e. no MIC could be determined at any concentration tested; details: P. aeruginosa, planktonic culture in Mueller-Hinton broth; mean of three replicate tests
Method: as §3, §4

[7] = tested on: Escherichia coli IR57 (V7); assay: as above; format: cell-based; set-up: key: C = confluent growth, i.e. no MIC could be determined at any concentration tested; details: E. coli, planktonic culture in Mueller-Hinton broth; mean of three replicate tests
Method: as §3, §4

CCCCCC(=O)OC1C(C)C2(O)C(C3OC3(CO)C(O)C3(O)C(=O)C(C)=CC32)C2C(C)(C)C12OC(=O)CCCCC (stereo not drawn) [Compound 4, 12,13-dihexanoyl-6,7-epoxy-4,5,9,12,13,20-hexahydroxy-1-tiglien-3-one]
mice with complete wound healing (complete re-epithelialisation, resolution of inflammation, absence of bacteria within the dermis) [1]: 6 of the 7 | DEAD/LIVE bacterial ratio ([2]; vs untreated and ethanol blank controls): no significant differences | biofilm bio-volume (COMSTAT) ([2]; vs untreated and ethanol blank controls (p<0.05)): significant reductions | Release of LL-37 from neutrophils [3]: increased in a concentration dependent manner | biofilm bio-volume (COMSTAT) (E. coli IR57 biofilm): Decreases in bio-volume were evident | distribution and density of bacteria in the biofilm (CLSM) (E. coli IR57 biofilm): significant changes | Minimum inhibitory concentrations [4]: C | Minimum inhibitory concentrations (Klebsiella pneumoniae): C | Minimum inhibitory concentrations [5]: 512 µg/mL (≈ 864 µM) | Minimum inhibitory concentrations (Streptococcus pyogenes): 256 µg/mL (≈ 432 µM) | Minimum inhibitory concentrations [6]: C | Minimum inhibitory concentrations [7]: C
